# Key:
# C1q = molecular target: T1, C1q (Homo sapiens, UniProt P02745+P02746+P02747); assay: FITC C1q binding to reagent-coated Ramos B cells in normal human serum; details: normal human serum 1.25-10%, FIG. 3A
# T1 construct: normal human serum (NHS, #A113, Quidel Corp., San Diego, Calif.); tissue Quidel Corp. A113; host or cells: normal human serum (purchased), added to reagent-coated Ramos B cells
# Protocol: C1q binding studies were performed as previously described (Cragg et al., Blood 2004, 103:2738-2743). Briefly, Ramos B-cells in Iscoves media (#12440-053, Gibco/Invitrogen, Grand island, NY) with no serum were plated in 96-well V bottom plates at 5×10^5/well in 100 μl. Cells were incubated with reagents for 15 minutes at 37° C., and normal human serum (NHS, #A113, Quidel Corp., San Diego, Calif.) diluted in Iscoves was then added at a volume of 50 μl to each well for a final concentration of 10, 5, 2.5, or 1.25% human serum. Fifty μl of media was added to the control well. For cobra venom factor (CVF) experiments, CVF was added to human serum complement samples at 20 Units CVF/mL of serum for 90 minutes at 37° C. prior to addition of serum to complement assays, and the dilution of serum by CVF accounted for when making sample dilutions.
# The cells plus complement source were incubated for an additional 5 minutes at 37° C., and washed 2 times with cold PBS (#14040-133, Gibco/Invitrogen, Grand Island, N.Y.) via centrifugation and resuspended in 100 μl of PBS. Fifty μl from each well was transferred to a second plate for second step control staining. […] Samples were washed, resuspended in cold PBS, and read immediately on a FACsCalibur flow cytometer and analyzed with Cell Quest software (Becton Dickinson, San Jose, Calif.).
# Ramos B cells [1] = assay: CDC assay, Ramos B cells with human serum complement, propidium iodide; assay type: cell-based; details: for CDC activity with human complement, single reagent: Ramos B cells, human serum
# Protocol: (§1) The cells were incubated 60 minutes at 37° C. […] Samples were incubated 15 minutes at room temperature in the dark prior to analysis by flow cytometry using a FACsCalibur and CellQuest software (Becton Dickinson).
# as §1
# BJAB B cells = assay: ADCC 51Cr release assay, BJAB targets, human PBMC effectors; assay type: cell-based; details: 10 ng/mL to 20 μg/mL, effector:target 25:1, 6 hours, FIG. 5C
# Protocol: To determine the ADCC activity of SEC fractions, BJAB, Ramos, and Daudi lymphoblastoid B cells (10^7) cells were labeled with 500 μCi/mL ^51Cr sodium chromate for 2 hours at 37° C. in IMDM/10% FBS. PBMCs were isolated from heparinized, human whole blood by fractionation over Lymphocyte Separation Media (LSM, ICN Biomedical) gradients. Reagent samples were added to RPMI media with 10% FBS and five serial dilutions for each reagent were prepared. For combinations, the reagents were premixed and diluted prior to addition to the wells. The ^51Cr labeled BJAB were added at (2×10^4 cells/well). The PBMCs were then added at (5×10^5 cells/well) for a final ratio of 25:1 effectors (PBMC):targets (BJAB). […] CPM released was measured on a Packard TopCounNXT from 50 μl dried culture supernatant. Percent specific killing was calculated by subtracting (cpm [mean of quadruplicate samples] of sample—cpm spontaneous release)/(cpm maximal release-cpm spontaneous release)×100 (FIG. 5C).
# BJAB, Ramos, and Daudi lymphoblastoid B cells (10E7) cells were labeled with 500 μCi/mL ^51Cr sodium chromate for 2 hours at 37° C. in IMDM/10% FBS. […] Cells were counted by trypan blue exclusion using a hemacytometer prior to use in subsequent assays. […]
# Effectors and targets were added to media alone to measure background killing. […] CPM released was measured on a Packard TopCounNXT. […]
# CD37 = molecular target: T2, CD37 (Homo sapiens, UniProt P11049); assay: binding of TRU-016 SEC fractions to Ramos cells, flow cytometry; set-up: Ramos cells expressing the CD20 and CD37 target antigens; endogenous in cells; host or cells: Ramos B-cell lymphoma line; details: FITC goat anti-human IgG, FIG. 5A
# T2 sequence (P11049 1-281): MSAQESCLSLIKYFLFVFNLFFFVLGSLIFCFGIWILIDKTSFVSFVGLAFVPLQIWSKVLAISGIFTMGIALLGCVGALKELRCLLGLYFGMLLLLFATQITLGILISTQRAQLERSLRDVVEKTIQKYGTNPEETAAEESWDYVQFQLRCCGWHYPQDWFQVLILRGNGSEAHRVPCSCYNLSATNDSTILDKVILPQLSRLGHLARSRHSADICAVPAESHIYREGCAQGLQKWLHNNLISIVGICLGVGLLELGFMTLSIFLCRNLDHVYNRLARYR
# Protocol: To determine the binding properties of SEC fractions, cells were suspended in staining media at a concentration of approximately 4×10^6 cells/mL and then plated at 50 μl/well (2×10^5 cells/well) in staining media. Serial dilutions of SEC fractions were then added to sequential wells, incubated for 45 minutes, washed, and binding activity was detected using FITC goat anti-human IgG. Samples were fixed in 200 μl 1% paraformaldehyde in PBS. Cells were analyzed by flow cytometry on a FACsCalibur instrument using Cell Quest software (BD Biosciences, San Jose, Calif.) (FIG. 5A).
# Ramos B cells [2] = assay: CDC assay, Ramos B cells with rabbit complement; assay type: cell-based, human; details: 10 μg/ml reagent, rabbit complement 10, 5 or 2.5%, FIG. 3C
# Protocol: Human and rabbit complement were then compared for their CDC activity in the presence of the TRU-016. The CDC activity of TRU-016 molecular forms incubated with Ramos B cells and human or rabbit complement was measured (FIG. 3C). Ramos B cells were added to wells in serum free media. […] Cells plus complement source were incubated 90 minutes at 37° C. Cells were washed once with cold PBS and propidium iodide (Molecular Probes #P3566) added to a final concentration of 0.5 μg/mL in cold PBS. Cells with PI were incubated in the dark at RT for 15 minutes and analyzed by flow cytometry.
# Ramos cells = assay: ADCC assay, labeled Ramos targets, human PBMC effectors; assay type: cell-based; details: effector to target ratio 25:1, FIG. 18D
# Protocol: To determine the ADCC activity of SEC fractions, BJAB, Ramos, and Daudi lymphoblastoid B cells (10^7) cells were labeled with 500 μCi/mL ^51Cr sodium chromate for 2 hours at 37° C. in IMDM/10% FBS. PBMCs were isolated from heparinized, human whole blood by fractionation over Lymphocyte Separation Media (LSM, ICN Biomedical) gradients. Reagent samples were added to RPMI media with 10% FBS and five serial dilutions for each reagent were prepared. For combinations, the reagents were premixed and diluted prior to addition to the wells. The ^51Cr labeled BJAB were added at (2×10^4 cells/well). The PBMCs were then added at (5×10^5 cells/well) for a final ratio of 25:1 effectors (PBMC):targets (BJAB). Reactions were set up in quadruplicate wells of a 96 well plate. TRU-016 SEC fractions were added to wells at a final concentration ranging from 10 ng/mL to 20 μg/mL as indicated on the graphs. Each data series plots a different SEC fraction at the titration ranges described. Reactions were allowed to proceed for 6 hours at 37° C. in 5% CO2 prior to harvesting and counting. CPM released was measured on a Packard TopCounNXT from 50 μl dried culture supernatant. Percent specific killing was calculated by subtracting (cpm [mean of quadruplicate samples] of sample—cpm spontaneous release)/(cpm maximal release-cpm spontaneous release)×100 (FIG. 5C).
# Daudi cells = assay: Annexin V/PI apoptosis analysis, Daudi; assay type: cell-based, human
# Protocol: Further experiments examining the effect of TRU-016 on B cell line apoptosis were performed using the more highly purified dimer form of TRU-016 (FIG. 19B). Samples were analyzed at both 24 and 48 hours after initiation of incubation reactions. Annexin/PI analysis was performed on several cell types using 20 μg/mL TRU-016 protein. Because apoptosis was reduced using the dimer form of TRU-016, 20 μg/mL goat anti-human IgG was added to reactions in order to cross link reagents on the cell surface. Cells were then stained with Annexin V-FITC and propidium iodide.
# T1 sequence (P02745 23-245): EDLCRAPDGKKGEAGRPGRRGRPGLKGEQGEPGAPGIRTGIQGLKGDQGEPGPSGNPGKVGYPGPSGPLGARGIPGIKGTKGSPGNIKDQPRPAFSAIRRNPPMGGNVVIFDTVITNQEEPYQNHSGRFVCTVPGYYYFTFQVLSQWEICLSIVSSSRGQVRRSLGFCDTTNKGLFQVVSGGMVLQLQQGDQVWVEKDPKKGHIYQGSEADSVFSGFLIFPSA
# T1 sequence (P02746 28-253): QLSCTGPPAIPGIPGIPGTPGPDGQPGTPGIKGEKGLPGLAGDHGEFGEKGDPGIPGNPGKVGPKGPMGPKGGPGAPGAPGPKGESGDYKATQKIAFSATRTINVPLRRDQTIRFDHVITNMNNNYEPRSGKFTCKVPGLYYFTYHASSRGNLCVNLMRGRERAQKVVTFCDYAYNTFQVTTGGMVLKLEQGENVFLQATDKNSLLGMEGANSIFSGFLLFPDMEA
# T1 sequence (P02747 29-245): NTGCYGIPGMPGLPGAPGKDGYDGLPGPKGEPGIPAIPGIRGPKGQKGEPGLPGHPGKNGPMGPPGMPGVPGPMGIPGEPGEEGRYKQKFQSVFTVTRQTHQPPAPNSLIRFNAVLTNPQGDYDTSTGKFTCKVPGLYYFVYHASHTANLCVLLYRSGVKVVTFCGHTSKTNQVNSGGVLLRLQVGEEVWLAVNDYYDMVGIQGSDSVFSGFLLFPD
Substance,FITC C1q binding (C1q),"CDC activity with human complement, single reagent (Ramos B cells [1])","CDC cell killing in the presence of CVF (Ramos B cells [1]; human serum complement with cobra venom factor, FIG. 3B)","ADCC, % specific killing (BJAB B cells)",binding to Ramos cells (titration curves) (CD37),"CDC activity with human complement, single reagent (Ramos B cells [1]; listed as dimer form of the TRU-016)","CDC activity with human complement, single reagent (Ramos B cells [1]; listed as dimer peak)",CDC activity with rabbit complement (Ramos B cells [2]),ADCC against Ramos cells (Ramos cells),apoptosis of Daudi cells with crosslinking agent (Daudi cells; 20 μg/mL plus 20 μg/mL goat anti-human IgG),"apoptosis of Daudi cells (Daudi cells; 20 μg/mL, 24-48 hours, FIG. 19B)"
HMW multimer fraction: higher molecular weight multimers of TRU-016 separated by SEC,more binding than the other forms,significant levels of CDC activity,significantly reduced in the presence of CVF,"potent, dose-dependent ADCC",better binding,–,–,–,–,–,–
TRU-016 dimer peak: dimer form of TRU-016 isolated by GPC and HPLC fractionation from higher molecular weight multimers,–,poor mediator of CDC,–,"potent, dose-dependent ADCC",–,very low CDC activity,very little or no CDC activity,good CDC,significant levels of ADCC,significant increase in the level of CD37 targeted apoptosis,induces apoptosis of Daudi cells

# — US10143748B2, “B-cell reduction using CD37-specific and CD20-specific binding molecules” (Emergent Product Development Seattle, LLC, priority 2005, dated 2018)
